Results published in patent US8859569B2, “Substituted annellated pyrimidines and use thereof” (Bayer Pharma Aktiengesellschaft, priority 2011, dated 2014).
pIC50: −log10 of the molar value.

Key:
[1] = biological target: T1, recombinant guanylate cyclase reporter cell line (Rattus norvegicus, UniProt P19686+P20595); assay: Action on recombinant guanylate cyclase reporter cell line; type: cell-based
T1 construct: expressed in transfected cells
T1 sequence (P20595 1-619): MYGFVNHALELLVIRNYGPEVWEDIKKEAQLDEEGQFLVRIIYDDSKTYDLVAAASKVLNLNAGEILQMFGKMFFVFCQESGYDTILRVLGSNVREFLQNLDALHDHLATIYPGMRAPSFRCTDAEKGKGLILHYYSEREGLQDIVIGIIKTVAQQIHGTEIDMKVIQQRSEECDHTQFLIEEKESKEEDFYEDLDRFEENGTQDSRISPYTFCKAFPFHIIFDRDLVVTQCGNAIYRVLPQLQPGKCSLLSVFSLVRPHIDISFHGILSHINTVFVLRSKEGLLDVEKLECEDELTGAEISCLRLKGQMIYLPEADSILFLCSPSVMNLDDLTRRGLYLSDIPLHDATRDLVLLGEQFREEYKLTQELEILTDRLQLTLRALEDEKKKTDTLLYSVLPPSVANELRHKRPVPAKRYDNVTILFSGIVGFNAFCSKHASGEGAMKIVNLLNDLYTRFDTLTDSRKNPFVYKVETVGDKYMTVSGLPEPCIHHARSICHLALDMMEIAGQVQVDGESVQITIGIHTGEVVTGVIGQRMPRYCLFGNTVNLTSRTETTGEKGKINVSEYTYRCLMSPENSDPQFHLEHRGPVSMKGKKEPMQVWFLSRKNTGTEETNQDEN
T1 sequence (P19686 1-690): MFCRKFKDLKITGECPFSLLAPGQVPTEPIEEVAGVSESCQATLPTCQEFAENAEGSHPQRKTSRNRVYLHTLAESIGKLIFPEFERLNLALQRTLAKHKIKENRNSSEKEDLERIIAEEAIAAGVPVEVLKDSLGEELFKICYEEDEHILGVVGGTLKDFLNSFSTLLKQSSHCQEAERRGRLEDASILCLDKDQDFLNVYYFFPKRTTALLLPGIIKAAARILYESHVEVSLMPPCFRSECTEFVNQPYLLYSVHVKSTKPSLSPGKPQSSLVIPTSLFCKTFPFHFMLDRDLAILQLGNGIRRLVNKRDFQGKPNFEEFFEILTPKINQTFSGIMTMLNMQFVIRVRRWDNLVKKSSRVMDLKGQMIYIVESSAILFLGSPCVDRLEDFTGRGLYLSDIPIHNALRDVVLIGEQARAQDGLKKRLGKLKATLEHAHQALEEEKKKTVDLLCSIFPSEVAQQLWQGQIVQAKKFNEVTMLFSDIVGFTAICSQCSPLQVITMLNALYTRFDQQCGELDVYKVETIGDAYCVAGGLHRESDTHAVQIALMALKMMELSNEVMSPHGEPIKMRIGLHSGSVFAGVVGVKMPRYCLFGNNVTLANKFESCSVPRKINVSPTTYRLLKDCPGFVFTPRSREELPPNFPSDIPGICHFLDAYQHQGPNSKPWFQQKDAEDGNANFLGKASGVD
Procedure: B-2. Action on Recombinant Guanylate Cyclase Reporter Cell Line
The cellular action of the compounds according to the invention is determined on a recombinant guanylate cyclase reporter cell line, as described in F. Wunder et al., Anal. Biochem. 339, 104-112 (2005).

[2] = tested on: aorta rings; assay: Vessel-relaxing action in vitro (aorta rings, phenylephrine contraction); settings: Oryctolagus cuniculus, concentration required to reduce phenylephrine-induced contraction of rabbit aorta rings by 50%
Outline: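 Rabbit aortic rings 1.5 mm wide were held under preload in carbogen-gassed Krebs-Henseleit at 37 °C and contracted with cumulative phenylephrine. Test substance was added in rising doses on successive passes, each compared with the preceding control contraction. IC50 is the concentration that halves contraction, with 0.1% DMSO in the bath.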

[3] = biological target: T2, human phosphodiesterase 5 (PDE-5) (Homo sapiens, UniProt O76074); assay: Inhibition of human phosphodiesterase 5 (PDE-5), SPA assay; type: biochemical; settings: PDE-5 preparation from human platelets, [8-3H]cGMP substrate
T2 construct: PDE-5 preparations are obtained from human platelets by lysis; from tissue; host or cells: human platelets
Outline: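 Scintillation proximity read-out with yttrium beads after 60 min room-temperature hydrolysis of 0.025 μCi [8-3H]cGMP, pH 7.5 Tris/MgCl2/EDTA buffer. Enzyme is a human platelet PDE-5 fraction, diluted to keep substrate turnover below 70%. Test concentrations 4 μM–0.0018 μM final; IC50 from inhibition curves.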

Compound	MEC (minimal effective concentration) [1] [μm]	pIC50 [2]	pIC50 [3]
CC1C(=O)NCCN1c1nc(-c2nn(Cc3ccccc3F)c3ncccc23)nc2c1C(C)(C)C(=O)N2 (stereo not drawn) [Example 92, 2-[1-(2-Fluorobenzyl)-1H-pyrazolo[3,4-b]pyridin-3-yl]-5,5-dimethyl-4-(2-methyl-3-oxopiperazin-1-yl)-5,7-dihydro-6H-pyrrolo[2,3-d]pyrimidin-6-one]	0.3	6.28	6.77
CC1(C)C(=O)Nc2nc(-c3nn(Cc4ccccc4F)c4ncccc34)nc(N3CCS(=O)(=O)CC3)c21 [Example 93, 4-(1,1-Dioxidothiomorpholin-4-yl)-2-[1-(2-fluorobenzyl)-1H-pyrazolo[3,4-b]pyridin-3-yl]-5,5-dimethyl-5,7-dihydro-6H-pyrrolo[2,3-d]pyrimidin-6-one]	0.3	6.01	6.92
CC(=O)NC1CCN(c2nc(-c3nn(Cc4ccccc4F)c4ncccc34)nc3c2C(C)(C)C(=O)N3)C1 (stereo not drawn) [Example 94, N-(1-{2-[1-(2-Fluorobenzyl)-1H-pyrazolo[3,4-b]pyridin-3-yl]-5,5-dimethyl-6-oxo-6,7-dihydro-5H-pyrrolo[2,3-d]pyrimidin-4-yl}pyrrolidin-3-yl)acetamide]	0.1	6.56	6.85
CC1(C)C(=O)Nc2nc(-c3nn(Cc4ccccc4F)c4ncc(F)cc34)nc(NCC3CC3(F)F)c21 (stereo not drawn) [Example 97, 4-{[(2,2-Difluorocyclopropyl)methyl]amino}-2-[5-fluoro-1-(2-fluorobenzyl)-1H-pyrazolo[3,4-b]pyridin-3-yl]-5,5-dimethyl-5,7-dihydro-6H-pyrrolo[2,3-d]pyrimidin-6-one]	0.1	5.87	7.20
CC1(C)C(=O)Nc2nc(-c3nn(Cc4ccccc4F)c4ncc(F)cc34)nc(NCC3CC3(C)C)c21 (stereo not drawn) [Example 99, 4-{[(2,2-Dimethylcyclopropyl)methyl]amino}-2-[5-fluoro-1-(2-fluorobenzyl)-1H-pyrazolo[3,4-b]pyridin-3-yl]-5,5-dimethyl-5,7-dihydro-6H-pyrrolo[2,3-d]pyrimidin-6-one]	0.3	5.00	6.36
CC1(C)C(=O)Nc2nc(-c3nn(Cc4ccccc4F)c4ncc(F)cc34)nc(N3CC(O)C3)c21 [Example 104, 2-[5-Fluoro-1-(2-fluorobenzyl)-1H-pyrazolo[3,4-b]pyridin-3-yl]-4-(3-hydroxyazetidin-1-yl)-5,5-dimethyl-5,7-dihydro-6H-pyrrolo[2,3-d]pyrimidin-6-one]	0.1	6.32	7.10
CC1(C)C(=O)Nc2nc(-c3nn(Cc4ccccc4F)c4ncccc34)nc(N3CC(N)C3)c21 [Example 107, 4-(3-Aminoazetidin-1-yl)-2-[1-(2-fluorobenzyl)-1H-pyrazolo[3,4-b]pyridin-3-yl]-5,5-dimethyl-5,7-dihydro-6H-pyrrolo[2,3-d]pyrimidin-6-one]	1	6.15	7.00
Cc1ncc2c(-c3nc(NCCC(F)(F)F)c4c(n3)NC(=O)C4(C)C)nn(Cc3ccccc3F)c2n1 [Example 108, 2-[1-(2-Fluorobenzyl)-6-methyl-1H-pyrazolo[3,4-d]pyrimidin-3-yl]-5,5-dimethyl-4-[(3,3,3-trifluoropropyl)amino]-5,7-dihydro-6H-pyrrolo[2,3-d]pyrimidin-6-one]	0.3	6.35	7.60

Further lines, results first:

MEC (minimal effective concentration) [1] [μm]	pIC50 [2]	pIC50 [3]	Compound
0.03	6.29	6.22	CC1(C)C(=O)Nc2nc(-c3nn(Cc4ccccc4F)c4ncccc34)nc(N3CC(C(F)(F)F)CCC3=O)c21 (stereo not drawn) [Example 91, 2-[1-(2-Fluorobenzyl)-1H-pyrazolo[3,4-b]pyridin-3-yl]-5,5-dimethyl-4-[2-oxo-5-(trifluoromethyl)piperidin-1-yl]-5,7-dihydro-6H-pyrrolo[2,3-d]pyrimidin-6-one]
0.1	6.64	8.40	CC1(C)C(=O)Nc2nc(-c3nn(Cc4ccccc4F)c4ncccc34)nc(N[C@H]3CC[C@H](O)CC3)c21 [Example 95, 2-[1-(2-Fluorobenzyl)-1H-pyrazolo[3,4-b]pyridin-3-yl]-4-[(trans-4-hydroxycyclohexyl)amino]-5,5-dimethyl-5,7-dihydro-6H-pyrrolo[2,3-d]pyrimidin-6-one]
0.01	6.67	8.40	CC1(C)C(=O)Nc2nc(-c3nn(Cc4ccccc4F)c4ncc(F)cc34)nc(NCC3(O)CC3)c21 [Example 98, 2-[5-Fluoro-1-(2-fluorobenzyl)-1H-pyrazolo[3,4-b]pyridin-3-yl]-4-{[(1-hydroxycyclopropyl)methyl]amino}-5,5-dimethyl-5,7-dihydro-6H-pyrrolo[2,3-d]pyrimidin-6-one]
0.3	5.32	5.55	O=C1Nc2nc(-c3nn(Cc4ccccc4F)c4ncc(F)cc34)nc(NCCC(F)(F)F)c2C12CCOC2 (stereo not drawn) [Example 100, 2′-[5-Fluoro-1-(2-fluorobenzyl)-1H-pyrazolo[3,4-b]pyridin-3-yl]-4′-[(3,3,3-trifluoropropyl)amino]-4,5-dihydrospiro[furan-3,5′-pyrrolo[2,3-d]pyrimidin]-6′(7′H)-one]
1	6.81	7.13	CC1(C)C(=O)Nc2nc(-c3nn(Cc4ccccc4F)c4ncc(F)cc34)nc(O)c21 [Example 102, 2-[5-Fluoro-1-(2-fluorobenzyl)-1H-pyrazolo[3,4-b]pyridin-3-yl]-4-hydroxy-5,5-dimethyl-5,7-dihydro-6H-pyrrolo[2,3-d]pyrimidin-6-one]
1	6.26	6.40	CC1(C)C(=O)Nc2nc(-c3nn(Cc4ccccc4F)c4ncc(F)cc34)nc(N3CCC(F)(F)CC3)c21 [Example 103, 4-(4,4-Difluoropiperidin-1-yl)-2-[5-fluoro-1-(2-fluorobenzyl)-1H-pyrazolo[3,4-b]pyridin-3-yl]-5,5-dimethyl-5,7-dihydro-6H-pyrrolo[2,3-d]pyrimidin-6-one]
0.3	6.32	6.01	CC1(C)C(=O)Nc2nc(-c3nn(Cc4ccccc4F)c4ncccc34)nc(N3CC(N4CCCC4)C3)c21 [Example 105, 2-[1-(2-Fluorobenzyl)-1H-pyrazolo[3,4-b]pyridin-3-yl]-5,5-dimethyl-4-[3-(pyrrolidin-1-yl)azetidin-1-yl]-5,7-dihydro-6H-pyrrolo[2,3-d]pyrimidin-6-one]
0.03	7.09	7.30	CC1(C)C(=O)Nc2nc(-c3nn(Cc4ccccc4F)c4ncccc34)nc(O)c21 [Example 109, 2-[1-(2-Fluorobenzyl)-1H-pyrazolo[3,4-b]pyridin-3-yl]-4-hydroxy-5,5-dimethyl-5,7-dihydro-6H-pyrrolo[2,3-d]pyrimidin-6-one]
0.3	5.79	6.49	CCCOc1nc(-c2nn(Cc3ccccc3F)c3ncccc23)nc2c1C(C)(C)C(=O)N2 [Example 111, 2-[1-(2-Fluorobenzyl)-1H-pyrazolo[3,4-b]pyridin-3-yl]-5,5-dimethyl-4-propoxy-5,7-dihydro-6H-pyrrolo[2,3-d]pyrimidin-6-one]
